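48-hour exposure; five concentrations; linearly interpolated endpoints. At the TGI there is no net growth.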 Some results are limits rather than exact numbers.

The source of these data is PubChem BioAssay (NCI).

Some test systems named below: UO-31 renal; CCRF-CEM leukemia; HCT-116 colon; M14 melanoma; A498 renal; EKVX NSCLC; HCC-2998 colon; UACC-62 melanoma; SK-MEL-2 melanoma; SF-539 CNS; SK-MEL-5 melanoma; NCI-H226 lung; TK-10 renal; A549 NSCLC; SF-268 CNS; SN12C renal; ACHN renal; HCT-15 colon; MCF7 breast.
Holding throughout (assay): NCI-60 cell line screen, 48 h

In the case of `CCc1ccccc1NC(=O)CC1NC(=O)CS1` (centres undefined), the TGI in the assay on UO-31 renal, in the assay on CCRF-CEM leukemia, in the assay with HCT-116 colon, with M14 melanoma, in the assay with A498 renal and in the assay on EKVX NSCLC was above 100 µM each time. Also, the TGI in the assay with HCC-2998 colon, in the assay on UACC-62 melanoma, in the assay with SK-MEL-2 melanoma, in the assay on SF-539 CNS, in the assay on SK-MEL-5 melanoma and in the assay on NCI-H226 lung was above 100 µM in each case. The TGI with TK-10 renal, with A549 NSCLC, in the assay with SF-268 CNS and in the assay on SN12C renal was above 100 µM throughout.
As to `CC(C)N(C(=O)C12C3C4C1C1C2C3C41C(=O)N(C(C)C)C(C)C)C(C)C` (centres undefined), the TGI with UO-31 renal, in the assay on CCRF-CEM leukemia, in the assay with ACHN renal, in the assay with HCT-15 colon, in the assay on HCT-116 colon and with M14 melanoma was above 50 µM each time. Also, the TGI in the assay with A498 renal, in the assay on EKVX NSCLC, in the assay with HCC-2998 colon, with UACC-62 melanoma, with SK-MEL-2 melanoma and in the assay on SF-539 CNS was above 50 µM throughout. For the same compound, the TGI in the assay on SK-MEL-5 melanoma, in the assay with NCI-H226 lung, in the assay on TK-10 renal, with A549 NSCLC, with SF-268 CNS and in the assay on SN12C renal was above 50 µM each time.
As to `Nc1[nH]c(=O)[nH]c(=O)c1Cc1cccc(Cl)c1`, the TGI in the assay on UO-31 renal is above 100 µM; with ACHN renal, above 100 µM; in the assay on HCT-15 colon, above 100 µM; in the assay on HCT-116 colon, above 100 µM; in the assay on MCF7 breast it was 48.8 µM; in the assay on M14 melanoma, above 100 µM. For the same compound, the TGI in the assay with A498 renal, in the assay on EKVX NSCLC, in the assay on HCC-2998 colon, in the assay with UACC-62 melanoma, with SK-MEL-2 melanoma and with SF-539 CNS was above 100 µM in each case. Further, the TGI in the assay with NCI-H226 lung, in the assay on TK-10 renal, with A549 NSCLC, with SF-268 CNS and with SN12C renal was above 100 µM in each case.
Regarding `O=C(O)C12CC3CC(CC(F)(C3)C1)C2`, the TGI in the assay with UO-31 renal, in the assay with CCRF-CEM leukemia, in the assay with ACHN renal, in the assay with HCT-116 colon, in the assay on M14 melanoma and in the assay on A498 renal was above 100 µM throughout. The TGI in the assay with EKVX NSCLC, in the assay with HCC-2998 colon, in the assay on UACC-62 melanoma, in the assay on SK-MEL-2 melanoma, in the assay on SF-539 CNS and with SK-MEL-5 melanoma was above 100 µM each time. Further, the TGI with TK-10 renal and in the assay on A549 NSCLC was above 100 µM each time.
For the compound `Cc1ccc(S(=O)(=O)NC(=O)Nc2cc(Cl)c(S(N)(=O)=O)cc2S(N)(=O)=O)cc1`, the TGI with UO-31 renal, in the assay with CCRF-CEM leukemia, in the assay on HCT-15 colon, in the assay with HCT-116 colon, in the assay with MCF7 breast and in the assay on M14 melanoma was above 100 µM throughout. Further, the TGI with EKVX NSCLC, in the assay with UACC-62 melanoma, in the assay with SK-MEL-2 melanoma, with SF-539 CNS, in the assay with SK-MEL-5 melanoma and in the assay with NCI-H226 lung was above 100 µM throughout. The TGI in the assay on TK-10 renal, in the assay on A549 NSCLC, in the assay with SF-268 CNS and in the assay on SN12C renal was above 100 µM each time.
Consider `CN(C)C(F)=PC(F)(F)F` (centres undefined), for which the TGI in the assay with UO-31 renal, in the assay on CCRF-CEM leukemia, with ACHN renal, with HCT-15 colon, in the assay with HCT-116 colon and in the assay with M14 melanoma was above 100 µM each time. Moreover, the TGI in the assay on A498 renal, in the assay on EKVX NSCLC, in the assay with HCC-2998 colon, in the assay on UACC-62 melanoma, with SK-MEL-2 melanoma and in the assay on SF-539 CNS was above 100 µM in each case. The TGI in the assay on SK-MEL-5 melanoma, with NCI-H226 lung, in the assay with TK-10 renal, in the assay on A549 NSCLC, with SF-268 CNS and in the assay with SN12C renal was above 100 µM throughout.
For the compound `Cc1nc(N(C(C)C)C(C)C)c(C(C)C)o1`, the TGI with UO-31 renal, in the assay with CCRF-CEM leukemia, with ACHN renal, in the assay with HCT-15 colon, with HCT-116 colon and in the assay on MCF7 breast was above 100 µM each time. Further, the TGI in the assay with M14 melanoma, in the assay on A498 renal, in the assay with EKVX NSCLC, in the assay with HCC-2998 colon, in the assay on UACC-62 melanoma and in the assay on SF-539 CNS was above 100 µM in each case. The TGI in the assay on SK-MEL-5 melanoma, in the assay with NCI-H226 lung, in the assay on TK-10 renal, with A549 NSCLC, in the assay on SF-268 CNS and with SN12C renal was above 100 µM throughout.
As for `C=C(CCC=C(C)C)C1CC=C(C)CC1` (centres undefined), the TGI was 30.6 µM in the assay on UO-31 renal; 33.4 µM with ACHN renal; 39.6 µM with HCT-15 colon; 57.9 µM with HCT-116 colon; 42.2 µM in the assay on MCF7 breast; above 100 µM in the assay with M14 melanoma. Moreover, the TGI in the assay with A498 renal was above 100 µM; in the assay on EKVX NSCLC it was 92.7 µM; in the assay with UACC-62 melanoma, above 100 µM; in the assay with SK-MEL-2 melanoma, 37.5 µM; in the assay with SF-539 CNS, 68.2 µM; in the assay with SK-MEL-5 melanoma it was 31 µM. The TGI in the assay with NCI-H226 lung was above 100 µM; in the assay with TK-10 renal, above 100 µM; with A549 NSCLC, 39 µM; in the assay with SF-268 CNS, above 100 µM; in the assay with SN12C renal, 41.3 µM.
